Reference: ChEMBL document CHEMBL5321211, “Synthesis and evaluation of anti-yellow fever virus activity of new 6-aryl-3-R-amino-1,2,4-triazin-5(4H)-ones” (Eur J Med Chem, 2023)
Converted amounts (≈) assume the structure as drawn.

Tested on: Yellow fever virus
Assay: Antiviral activity against Yellow fever virus 17D assessed as reduction in cytopathic effect incubated for 30 mins
Assay type: functional, organism-based
Settings: 0.5 h

SMILES | EC50 [nM]
C/C(=N\Nc1ccccc1)c1sc(-c2cc(Cl)nc(Oc3ccc(Cl)cc3)c2)nc1C | 1600

Tested on: Yellow fever virus
Assay: Antiviral activity against Yellow fever virus 17D infected in Huh-7 cells assessed as reduction in cytopathic effect
Assay type: functional, organism-based
Settings: not given

SMILES | EC50 [nM]
CC[C@H](C)[C@@H]1N=C(c2ccccc2)c2cc(Cl)ccc2N(CC(=O)O)C1=O | 210

Tested on: Yellow fever virus
Assay: Antiviral activity against Yellow fever virus African green monkey Vero cells assessed as reduction in cytopathic effect
Assay type: functional, organism-based
Settings: not given

SMILES | EC50 [µM]
Nc1c(C(=O)Nc2nnc(-c3ccccc3)s2)sc2nc3c(cc12)CCCCC3 | 6.97

Tested on: Yellow fever virus
Assay: Antiviral activity against Yellow fever virus assessed as reduction in cytopathic effect by neutral red uptake assay
Assay type: functional, organism-based
Settings: not given

SMILES | EC50 [µM]
NC(=O)C1(N2CCCCC2)CCN(C(=O)CSc2nc3ccccc3o2)CC1 | 7.4

Tested on: Yellow fever virus
Assay: Antiviral activity against Yellow fever virus
Assay type: functional, organism-based
Settings: not given

SMILES | EC50 [µM]
CCn1c(=O)/c(=C2\Sc3c(F)cccc3N2C)s/c1=C\c1cccc[n+]1C | < 1
C[C@@H]1[C@@H](CO)O[C@@H](n2ccc(N)nc2=O)[C@]1(C)O | 0.7
O=c1cnn([C@@H]2O[C@H](CO)[C@@H](O)[C@H]2O)c(=O)[nH]1 [6-AZAURIDINE] | 46
NC(=O)c1nc(F)cnc1O [FAVIPIRAVIR] | 330

Tested on: Yellow fever virus
Assay: Antiviral activity against Yellow fever virus infected in human A549 cells assessed as reduction in virus replication
Assay type: functional, organism-based
Settings: not given

SMILES | EC50 [nM]
O=C1OC2(c3ccccc31)c1cc(I)c(O)c(I)c1Oc1c2cc(I)c(O)c1I [ERYTHROSINE] | 570

Tested on: not listed separately
Assay: Selectivity index, ratio of CC50 for cytotoxicity against human A549 cells to EC50 for antiviral activity against Yellow fever virus infected in human A549 cells assessed as reduction in virus replication
Assay type: toxicity, cell-based
Settings: read-out: Ratio CC50/EC50

SMILES | selectivity ratio
O=C1OC2(c3ccccc31)c1cc(I)c(O)c(I)c1Oc1c2cc(I)c(O)c1I [ERYTHROSINE] | > 263

Tested on: Yellow fever virus
Assay: Antiviral activity against wild typeYellow fever virus infected in human Huh-7 cells assessed as reduction in virus replication
Assay type: functional, organism-based
Settings: not given

SMILES | EC50 [µM]
NC(=O)c1ncn([C@@H]2O[C@H](CO)[C@@H](O)[C@H]2O)n1 [RIBAVIRIN] | 4.9
CC(C)OC(=O)[C@H](C)N[P@](=O)(OC[C@H]1O[C@@H](n2ccc(=O)[nH]c2=O)[C@](C)(F)[C@@H]1O)Oc1ccccc1 [SOFOSBUVIR] | 4.2

Tested on: not listed separately
Assay: Selectivity index, ratio of CC50 for cytotoxicity against human Huh-7 cells to EC50 for antiviral activity against wild typeYellow fever virus infected in human Huh-7 cells assessed as reduction in virus replication
Assay type: toxicity, cell-based
Settings: read-out: Ratio CC50/EC50

SMILES | selectivity ratio
NC(=O)c1ncn([C@@H]2O[C@H](CO)[C@@H](O)[C@H]2O)n1 [RIBAVIRIN] | 58
CC(C)OC(=O)[C@H](C)N[P@](=O)(OC[C@H]1O[C@@H](n2ccc(=O)[nH]c2=O)[C@](C)(F)[C@@H]1O)Oc1ccccc1 [SOFOSBUVIR] | 90

Tested on: Yellow fever virus
Assay: Antiviral activity against Yellow fever virus 17D infected in African green monkey Vero assessed as reduction in cytopathic effect preincubated with compound for 5 mins followed by viral infection and measured at 72 to 120 hrs by neutral red uptake assay
Assay type: functional, organism-based
Settings: not given

SMILES | EC50 [µg/mL]
O=c1[nH]c(Nc2ccc(F)cc2)nnc1Cc1ccc(F)cc1 | > 100
Cc1ccc(Cc2nnc(Nc3ccccc3F)[nH]c2=O)cc1 | 1 (≈ 3.22 µM)
COc1ccccc1Nc1nnc(Cc2ccc(C)cc2)c(=O)[nH]1 | 0.94 (≈ 2.92 µM)
COc1ccc(OC)c(Nc2nnc(Cc3ccc(C)cc3)c(=O)[nH]2)c1 | 2.9 (≈ 8.23 µM)
CC(C)c1ccc(Cc2nnc(NCCN3CCOCC3)[nH]c2=O)cc1 | > 100

Tested on: Yellow fever virus
Assay: Antiviral activity against Yellow fever virus 17D infected in African green monkey Vero assessed as reduction in cytopathic effect preincubated with compound for 5 mins followed by viral infection and measured at 72 to 120 hrs by visual analysis
Assay type: functional, organism-based
Settings: not given

SMILES | EC50 [µg/mL]
Cc1ccc(Cc2nnc(Nc3ccccc3F)[nH]c2=O)cc1 | 5 (≈ 16.1 µM)
COc1ccccc1Nc1nnc(Cc2ccc(C)cc2)c(=O)[nH]1 | 4.2 (≈ 13 µM)

Tested on: Yellow fever virus
Assay: Antiviral activity against Yellow fever virus 17D infected in African green monkey Vero assessed as reduction in virus yield preincubated with compound for 5 mins followed by viral infection and measured at 72 to 120 hrs
Assay type: functional
Settings: time 4325-7205 min

SMILES | EC90 [µg/mL]
COc1ccccc1Nc1nnc(Cc2ccc(C)cc2)c(=O)[nH]1 | 50 (≈ 155 µM)

Tested on: Yellow fever virus
Assay: Antiviral activity against Yellow fever virus 17D infected in African green monkey Vero assessed as reduction in cytopathic effect preincubated with compound for 5 mins followed by viral infection and measured at 7 days
Assay type: functional, organism-based
Settings: not given

SMILES | EC50 [µg/mL]
COc1ccccc1Nc1nnc(Cc2ccc(C)cc2)c(=O)[nH]1 | 4.2 (≈ 13 µM)

Tested on: not listed separately
Assay: Cytotoxicity against African green monkey Vero cells assessed as inhibition of cell growth by neutral red uptake assay
Assay type: toxicity, cell-based, Chlorocebus sabaeus
Settings: not given

SMILES | IC50 [µg/mL]
O=c1[nH]c(Nc2ccc(F)cc2)nnc1Cc1ccc(F)cc1 | > 100
Cc1ccc(Cc2nnc(Nc3ccccc3F)[nH]c2=O)cc1 | > 100
COc1ccccc1Nc1nnc(Cc2ccc(C)cc2)c(=O)[nH]1 | > 100
COc1ccc(OC)c(Nc2nnc(Cc3ccc(C)cc3)c(=O)[nH]2)c1 | 16 (≈ 45.4 µM)
CC(C)c1ccc(Cc2nnc(NCCN3CCOCC3)[nH]c2=O)cc1 | > 100

Tested on: not listed separately
Assay: Selectivity index, ratio of IC50 for cytotoxicity against African green monkey Vero cells assessed as inhibition of cell growth by neutral red uptake assay to EC50 for antiviral activity against Yellow fever virus 17D infected in African green monkey Vero assessed as reduction in cytopathic effect
Assay type: toxicity, cell-based
Settings: read-out: Ratio IC50/EC50

SMILES | selectivity ratio
Cc1ccc(Cc2nnc(Nc3ccccc3F)[nH]c2=O)cc1 | > 19
COc1ccccc1Nc1nnc(Cc2ccc(C)cc2)c(=O)[nH]1 | > 31
COc1ccc(OC)c(Nc2nnc(Cc3ccc(C)cc3)c(=O)[nH]2)c1 | 5.5

Tested on: not listed separately
Assay: Cytotoxicity against African green monkey Vero cells assessed as inhibition of cell growth by visual analysis
Assay type: toxicity, cell-based, Chlorocebus sabaeus
Settings: not given

SMILES | IC50 [µg/mL]
Cc1ccc(Cc2nnc(Nc3ccccc3F)[nH]c2=O)cc1 | 43 (≈ 139 µM)
COc1ccccc1Nc1nnc(Cc2ccc(C)cc2)c(=O)[nH]1 | 27 (≈ 83.8 µM)

Tested on: not listed separately
Assay: Selectivity index, ratio of IC50 for cytotoxicity against African green monkey Vero cells assessed as inhibition of cell growth by visual analysis to EC50 for antiviral activity against Yellow fever virus 17D infected in African green monkey Vero assessed as reduction in cytopathic effect
Assay type: toxicity, cell-based
Settings: read-out: Ratio IC50/EC50

SMILES | selectivity ratio
Cc1ccc(Cc2nnc(Nc3ccccc3F)[nH]c2=O)cc1 | 8.6
COc1ccccc1Nc1nnc(Cc2ccc(C)cc2)c(=O)[nH]1 | 6.4

Tested on: Yellow fever virus
Assay: Antiviral activity against Yellow fever virus 17D infected in African green monkey Vero assessed as reduction in cytopathic effect preincubated with compound for 5 mins followed by viral infection and measured at 72 to 120 hrs
Assay type: functional, organism-based
Settings: not given

SMILES | EC50 [µM]
COc1ccccc1Nc1nnc(Cc2ccc(C)cc2)c(=O)[nH]1 | 13

Tested on: not listed separately
Assay: Selectivity index, ratio of CC50 for cytotoxicity against African green monkey Vero cells to EC50 for antiviral activity against Yellow fever virus 17D infected in African green monkey Vero assessed as reduction in cytopathic effect
Assay type: toxicity, cell-based
Settings: read-out: Ratio CC50/EC50

SMILES | selectivity ratio
COc1ccccc1Nc1nnc(Cc2ccc(C)cc2)c(=O)[nH]1 | > 36
